According to PubChem BioAssay AID2060513 (Molecular Pharmacology Branch, DTP, NCI, 2025):
One block for each compound: values may come before it.

Test system: 299254-011-R-J1-PDC complex spheroids viability
Test: Anticancer human tumor 299254-011-R-J1-PDC patient-derived melanoma cell line growth inhibition [GQUAD]
Conditions: for IC50: curve of first compound; for viability, T/C: stronger effect = lower value
From the text: DNA G-quadruplex Stabilizer Agents in Combinations in Complex Spheroids
A high-throughput screen of multi-cell type tumor spheroids was designed to identify active combinations of DNA G-quadruplex stabilizer agents and targeted small molecules. Complex spheroids include a stromal component modeled by human endothelial cells (HUVEC) and fibroblasts modeled by human mesenchymal stem cells (MSCs). The concentration ranges selected for each drug and investigational agent were based upon clinically achievable concentrations if the clinical Cmax of the agent was known.
Compounds. The drugs and investigational agents: pidnarulex (CX-5461; NSC782164), APTO-253 (NSC789042), BRACO-19 (NSC847499), peposertib (NSC802822), ceralasertib (NSC780249), elimusertib (NSC800525), camonsertib (NSC841442), AZD-1390 (NSC803789), olaparib (NSC753686), talazoparib (NSC767125), ART-558 (NSC835418), sotorasib (NSC818433), MRTX-1133 (NSC836407), SN-38 (NSC673596), topotecan (NSC609699), etoposide (NSC141540), doxorubicin (NSC123127), gemcitabine (NSC613327), 5-fluorouracil (NSC19893), paclitaxel (NSC125973), vemurafenib (NSC761431), panobinostat (NSC761190), R-306465 (JNJ-16241199; NSC773264), adavosertib (NSC754352), TP-3654 (NSC805149), carboplatin (NSC241240), KSQ-4279 (NSC840948), and staurosporine (NSC755774) were obtained from the National Cancer Institute (NCI) Developmental Therapeutics Program Chemical Repository (34). The FDA-approved anticancer drug set is available from the NCI Developmental Therapeutics Program. […] The stock solutions were prepared in dimethyl sulfoxide (DMSO, Sigma-Aldrich, St. Louis, MO, cat. D2650) at 800-fold the tested concentration and stored at -70 degrees C prior to their use. All drugs and investigational agents were tested over a range starting from a high concentration at or near the clinical Cmax and decreasing in half-log increments. If the clinical Cmax for an agent had not been determined, the highest concentration tested was 10 microM.
2.3 Cell Culture. All cells were maintained in an incubator at 37 degrees C and 5% CO2 with 95% humidity. The PDC lines were cultured according to standard operating procedures established by the NCI PDMR. All PDCs were thawed and cultured in Matrigel-coated flasks prepared with a working solution of 1X Ham's F-12 nutrient mix, without supplementation (Invitrogen, cat. 11765054), 100 U/mL penicillin-streptomycin (Invitrogen, cat. 15140122), and 2.5% Matrigel (Corning Inc., cat. 354248) for the first three passages. The 857933-349-R-J2-PDC line was cultured in 6C/Colon 1B media, which includes advanced DMEM/F-12 (Thermo Fisher Scientific, cat. 12634028), 10 mM HEPES (Thermo Fisher Scientific, cat. 15630080), 1X GlutaMAX supplement (Thermo Fisher Scientific, cat. 35050061), 0.1 mg/mL primocin (InvivoGen, cat. ant-pm-2), 10% defined fetal bovine serum, heat inactivated (HyClone Laboratories Inc., cat. SH30070.03HI), 50% L-WRN conditioned media (ATCC, cat. CRL-3276), 1.25 mM N-Acetyl-L-cysteine (Sigma-Aldrich, cat. A9165), 10 mM nicotinamide (Sigma-Aldrich, cat. N0636), 1X B-27 supplement (Thermo Fisher Scientific, cat. 17504044), 1X N-2 supplement (Thermo Fisher Scientific, cat. 17502048), 10 microM Y-27632 dihydrochloride (Tocris Bioscience, cat. 1254), and 50 ng/mL human EGF recombinant protein (Thermo Fisher Scientific, cat. PHG0311). The 485176-168-R4-J1-PDC line was cultured in Panc media, which includes all 6C/Colon 1B media components plus 100 ng/mL human FGF-10 (Thermo Fisher Scientific, cat. 100-26), 500 nM SB-431542 (Selleckchem, cat. S1067), and gastrin (Tocris, cat. 3006).
[…]

[1] = second compound 0.0316 µM, first compound 0.0316 µM
[2] = second compound 0.0316 µM, first compound 0.1 µM
[3] = second compound 0.0316 µM, first compound 0.316 µM
[4] = second compound 0.0316 µM, first compound 1 µM
[5] = second compound 0.0316 µM, first compound 3.16 µM
[6] = second compound 0.0316 µM, first compound 10 µM
[7] = second compound 0.1 µM, first compound 0.0316 µM
[8] = second compound 0.1 µM, first compound 0.1 µM
[9] = second compound 0.1 µM, first compound 0.316 µM
[10] = second compound 0.1 µM, first compound 1 µM
[11] = second compound 0.1 µM, first compound 3.16 µM
[12] = second compound 0.1 µM, first compound 10 µM
[13] = second compound 0.316 µM, first compound 0.0316 µM
[14] = second compound 0.316 µM, first compound 0.1 µM
[15] = second compound 0.316 µM, first compound 0.316 µM
[16] = second compound 0.316 µM, first compound 1 µM
[17] = second compound 0.316 µM, first compound 3.16 µM
[18] = second compound 0.316 µM, first compound 10 µM
[19] = second compound 1 µM, first compound 0.0316 µM
[20] = second compound 1 µM, first compound 0.1 µM
[21] = second compound 1 µM, first compound 0.316 µM
[22] = second compound 1 µM, first compound 1 µM
[23] = second compound 1 µM, first compound 3.16 µM
[24] = second compound 1 µM, first compound 10 µM
[25] = second compound 3.16 µM, first compound 0.0316 µM
[26] = second compound 3.16 µM, first compound 0.1 µM
[27] = second compound 3.16 µM, first compound 0.316 µM
[28] = second compound 3.16 µM, first compound 1 µM
[29] = second compound 3.16 µM, first compound 3.16 µM
[30] = second compound 3.16 µM, first compound 10 µM
[31] = second compound 10 µM, first compound 0.0316 µM
[32] = second compound 10 µM, first compound 0.1 µM
[33] = second compound 10 µM, first compound 0.316 µM
[34] = second compound 10 µM, first compound 1 µM
[35] = second compound 10 µM, first compound 3.16 µM
[36] = second compound 10 µM, first compound 10 µM
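Further: spheroids exposed to the agents for seven days before readout.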
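Wherever viability, T/C is given: percent viability relative to DMSO vehicle control wells = 100%.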

- IC50 (second compound 0.0316 µM): 201 nM
- IC50 (second compound 0.1 µM): 227 nM
- IC50 (second compound 0.316 µM): 228 nM
- IC50 (second compound 1 µM): 210 nM
- IC50 (second compound 3.16 µM): 212 nM
- IC50 (second compound 10 µM): < 31.6 nM
Compound: O=C(NO)c1cnc(N2CCN(S(=O)(=O)c3ccc4ccccc4c3)CC2)nc1 + Cc1cnc(CNC(=O)c2c(=O)c3ccc(N4CCCN(C)CC4)nc3n3c2sc2ccccc23)cn1
- viability, T/C [1]: 112%
- viability, T/C [2]: 94.8%
- viability, T/C [3]: 20.9%
- viability, T/C [4]: 0.93%
- viability, T/C [5]: 0.18%
- viability, T/C [6]: 0.19%
- viability, T/C [7]: 107%
- viability, T/C [8]: 97.8%
- viability, T/C [9]: 30.7%
- viability, T/C [10]: 1.22%
- viability, T/C [11]: 0.15%
- viability, T/C [12]: 0.24%
- viability, T/C [13]: 102%
- viability, T/C [14]: 109%
- viability, T/C [15]: 27.9%
- viability, T/C [16]: 0.56%
- viability, T/C [17]: 0.14%
- viability, T/C [18]: 0.21%
- viability, T/C [19]: 93.6%
- viability, T/C [20]: 83%
- viability, T/C [21]: 31.8%
- viability, T/C [22]: 1.83%
- viability, T/C [23]: 0.13%
- viability, T/C [24]: 0.18%
- viability, T/C [25]: 74.8%
- viability, T/C [26]: 91.3%
- viability, T/C [27]: 32.3%
- viability, T/C [28]: 0.19%
- viability, T/C [29]: 0.15%
- viability, T/C [30]: 0.16%
- viability, T/C [31]: 45.8%
- viability, T/C [32]: 11.5%
- viability, T/C [33]: 0.31%
- viability, T/C [34]: 0.22%
- viability, T/C [35]: 0.22%
- viability, T/C [36]: 0.23%

Compound: COc1ncnc(C2CC2)c1-c1ncc2cnn(Cc3ccc(-c4nc(C(F)(F)F)cn4C(C)C)cc3)c2n1 + Cc1[nH]c2ccc(F)cc2c1-c1nc2c3cccnc3c3ncccc3c2[nH]1
- IC50 (second compound 0.0316 µM): > 10000 nM
- IC50 (second compound 0.1 µM): > 10000 nM
- IC50 (second compound 0.316 µM): > 10000 nM
- IC50 (second compound 1 µM): > 10000 nM
- IC50 (second compound 3.16 µM): > 10000 nM
- IC50 (second compound 10 µM): > 10000 nM
- viability, T/C [1]: 106%
- viability, T/C [2]: 98.9%
- viability, T/C [3]: 101%
- viability, T/C [4]: 100%
- viability, T/C [5]: 107%
- viability, T/C [6]: 100%
- viability, T/C [7]: 120%
- viability, T/C [8]: 96.1%
- viability, T/C [9]: 110%
- viability, T/C [10]: 104%
- viability, T/C [11]: 111%
- viability, T/C [12]: 83.5%
- viability, T/C [13]: 105%
- viability, T/C [14]: 107%
- viability, T/C [15]: 98.7%
- viability, T/C [16]: 92%
- viability, T/C [17]: 92.9%
- viability, T/C [18]: 84.6%
- viability, T/C [19]: 129%
- viability, T/C [20]: 107%
- viability, T/C [21]: 102%
- viability, T/C [22]: 94.2%
- viability, T/C [23]: 103%
- viability, T/C [24]: 112%
- viability, T/C [25]: 104%
- viability, T/C [26]: 113%
- viability, T/C [27]: 108%
- viability, T/C [28]: 88.6%
- viability, T/C [29]: 99.8%
- viability, T/C [30]: 106%
- viability, T/C [31]: 91%
- viability, T/C [32]: 100%
- viability, T/C [33]: 108%
- viability, T/C [34]: 114%
- viability, T/C [35]: 106%
- viability, T/C [36]: 81.8%
